Patent US7695899B2, “Methods of identifying and using chemotherapeutic agents” (The Regents of the University of Colorado, a body corporate, priority 2003, dated 2010)

Test system: irradiated grp mutant larvae
Assay: Survival screen of irradiated and non-irradiated grp mutant and wild-type larvae
Assay type: in vivo, Drosophila melanogaster
Details: colchicine 1.3 μM in cornmeal-agar food; 4,000 Rads of X-rays; cumulative results of three screens; FIG. 1
Procedure: To obtain correctly aged larvae, embryos are collected at Day 0 from wild-type and grp mutant heterozygous adults for approximately 4 hours in the late afternoon or early evening 4 days prior to experiment. The embryos are allowed to hatch into larvae and the larvae are allowed to develop. The grp mutant heterozygote adults carry a grp mutation on one chromosome and a wild-type grp gene on a balancer chromosome. The balancer chromosome also carries a Green Fluorescent Protein (GFP) transgene.
In the morning of Day 4, food is washed from larvae by using stacked sieves (VWR; USA Standard Testing Sieve: 850, 600, 425, 180 micrometer). […]
At Day 9, the total number of pupae formed are counted (this gives the percentage of larvae that survived into pupae). In the vials with progeny from grp heterozygous parents, the grp heterozygous pupae and the wild-type pupae are identified by virtue of their expression of GFP and are not counted. At Day 14, the number of empty pupae are counted (indicating the number of pupae that eclosed into adults).
Survival is expressed as the percentage of larvae that form pupae, and the percentage of pupae that eclose into adults. […]

`COc1cc2c(c(OC)c1OC)-c1ccc(OC)c(=O)cc1[C@@H](NC(C)=O)CC2` [colchicine] was tested, and the “survival of irradiated grp mutant larvae (grp+R) relative to non-irradiated grp mutant larvae (grp-R), wild-type irradiated larvae (SEV+R) and wild-type non-irradiated larvae (SEV-R)” value was “selectively reduces the survival”.
